Source: patent US9518018B2, “3-alkoxy, thioalkyl and amino-4-amino-6-(substituted)picolinates and their use as herbicides” (Dow AgroSciences LLC, priority 2011, dated 2016)

Columns and labels:
Test in all cases: In-water applied herbicidal activity in transplanted paddy rice
Type in all cases: in vivo
[1] = system: CYPDI = Cyperus difformis L. (small-flower flatsedge)
Method: (§1) Weed seeds or nutlets of the desired test plant species were planted in puddled soil (mud) prepared by mixing a non-sterilized mineral soil (28 percent silt, 18 percent clay, and 54 percent sand, with a pH of about 7.3 to 7.8 and an organic matter content of about 1.0 percent) and water at a ratio of 100 kilograms (kg) of soil to 19 liters (L) of water. The prepared mud was dispensed in 250 mL aliquots into 480 mL non-perforated plastic pots with a surface area of 86.59 cm^2 leaving a headspace of 2.5 to 3 cm in each pot. Rice seeds were planted in Sun Gro MetroMix 306 planting mixture, which typically has a pH of 6.0 to 6.8 and an organic matter content of about 30 percent, in plastic plug trays. Seedlings at the second or third leaf stage of growth were transplanted into 650 mL of mud contained in 960 mL non-perforated plastic pots with a surface area of 86.59 cm^2 four days prior to herbicide application. The paddy was created by filling the 2.5 to 3 cm headspace of the pots with water. When required to ensure good germination and healthy plants, a fungicide treatment and/or other chemical or physical treatment was applied. The plants were grown for 4-14 d in a greenhouse with an approximate 14-h photoperiod which was maintained at about 29° C. during the day and 26° C. during the night. Nutrients were added as Osmocote (17:6:10, Nitrogen:Phosphorus:Potassium (N:P:K)+minor nutrients) at 2 grams (g) per cup. Water was added on a regular basis to maintain the paddy flood, and supplemental lighting was provided with overhead metal halide 1000-Watt lamps as necessary. The plants were employed for testing when they reached the second or third true leaf stage. Treatments consisted of compounds 45, 34, and 66. For technical grade compounds, a weighed amount, determined by the highest rate to be tested, was placed in an individual 120 mL glass vial and was dissolved in 20 mL of acetone to obtain concentrated stock solutions. […] The concentrated stock solutions obtained were diluted with 20 mL of an aqueous mixture containing 2.5% Agri-dex crop oil concentrate (v/v). Applications were made by injecting an appropriate amount of the stock solution into the aqueous layer of the paddy. Control plants were treated in the same manner with the solvent blank. All treated plant material received the same concentration of acetone and crop oil concentrate. The treated plants and control plants were placed in a greenhouse as described above and water was added as needed to maintain a paddy flood. After approximately 3 weeks, the condition of the test plants, compared with that of the untreated plants, was determined visually and scored on a scale of 0 to 100 percent where 0 corresponds to no injury and 100 corresponds to complete kill. By applying the well-accepted probit analysis as described by J. Berkson in Journal of the […], 48, 565 (1953) and by D. Finney in “Probit Analysis” Cambridge University Press (1952) or by plotting the mean data and fitting a logarithmic curve to the portion of the data where there was a dose response using Microsoft Excel®, the above data can be used to calculate GR50 and GR90 values, which are defined as growth reduction factors that correspond to the effective dose of herbicide required to kill or control 50 percent or 90 percent, respectively, of a target plant.

[2] = system: SCPJU = Scirpus juncoides ROXB. (Japanese bulrush)
Method: as §1

[3] = system: ORYSA = Oryza sativa ‘M202’ (rice)
Method: as §1

[4] = system: MOOVA = Monochoria vaginalis (BURM.f.) C.PRESL ex KUNTH (monochoria)
Method: as §1

[5] = system: ECHCG = Echinochloa crus-galli (L.) P.BEAUV. (barnyardgrass)
Method: as §1

[6] = system: ORYSA = Oryza sativa ‘Wells’ (rice)
Method: as §1

[7] = Table 7, dose to kill or control 50 percent, 21 days after application
[8] = Table 7, dose to kill or control 90 percent, 21 days after application

## COc1c(C(=O)OCc2ccccc2)nc(-c2ccc(Cl)c(OC)c2F)c(F)c1N [Compound 66, benzyl 4-amino-6-(4-chloro-2-fluoro-3-methoxyphenyl)-5-fluoro-3-methoxypicolinate]
[1]; Table 7, 2.19 g ae/ha
  Mean Visual Injury (%)-21 Days After Application CYPDI: 0%
[1]; Table 7, 4.38 g ae/ha
  Mean Visual Injury (%)-21 Days After Application CYPDI: 48%
[1]; Table 7, 8.75 g ae/ha
  Mean Visual Injury (%)-21 Days After Application CYPDI: 94%
[1]; Table 7, 17.5 g ae/ha
  Mean Visual Injury (%)-21 Days After Application CYPDI: 100%
[1]; Table 7, 35 g ae/ha
  Mean Visual Injury (%)-21 Days After Application CYPDI: 100%
[1]; Table 7, 70 g ae/ha
  Mean Visual Injury (%)-21 Days After Application CYPDI: 100%
[1]; Table 7, 140 g ae/ha
  Mean Visual Injury (%)-21 Days After Application CYPDI: 100%
[1]; [7]
  GR50 CYPDI: 4.5 g ae/ha
[1]; [8]
  GR90 CYPDI: 8.2 g ae/ha
[2]; Table 7, 2.19 g ae/ha
  Mean Visual Injury (%)-21 Days After Application SCPJU: 35%
[2]; Table 7, 4.38 g ae/ha
  Mean Visual Injury (%)-21 Days After Application SCPJU: 78%
[2]; Table 7, 8.75 g ae/ha
  Mean Visual Injury (%)-21 Days After Application SCPJU: 94%
[2]; Table 7, 17.5 g ae/ha
  Mean Visual Injury (%)-21 Days After Application SCPJU: 98%
[2]; Table 7, 35 g ae/ha
  Mean Visual Injury (%)-21 Days After Application SCPJU: 100%
[2]; Table 7, 70 g ae/ha
  Mean Visual Injury (%)-21 Days After Application SCPJU: 100%
[2]; Table 7, 140 g ae/ha
  Mean Visual Injury (%)-21 Days After Application SCPJU: 100%
[2]; [7]
  GR50 SCPJU: 2.8 g ae/ha
[2]; [8]
  GR90 SCPJU: 7.1 g ae/ha
[3]; Table 7, 2.19 g ae/ha
  Mean Visual Injury (%)-21 Days After Application ORYSA ‘M202’: 0%
[3]; Table 7, 4.38 g ae/ha
  Mean Visual Injury (%)-21 Days After Application ORYSA ‘M202’: 0%
[3]; Table 7, 8.75 g ae/ha
  Mean Visual Injury (%)-21 Days After Application ORYSA ‘M202’: 0%
[3]; Table 7, 17.5 g ae/ha
  Mean Visual Injury (%)-21 Days After Application ORYSA ‘M202’: 0%
[3]; Table 7, 35 g ae/ha
  Mean Visual Injury (%)-21 Days After Application ORYSA ‘M202’: 0%
[3]; Table 7, 70 g ae/ha
  Mean Visual Injury (%)-21 Days After Application ORYSA ‘M202’: 0%
[3]; Table 7, 140 g ae/ha
  Mean Visual Injury (%)-21 Days After Application ORYSA ‘M202’: 17%
[3]; [7]
  GR50 ORYSA ‘M202’: >140 g ae/ha
[3]; [8]
  GR90 ORYSA ‘M202’: >140 g ae/ha
[4]; Table 7, 2.19 g ae/ha
  Mean Visual Injury (%)-21 Days After Application MOOVA: 0%
[4]; Table 7, 4.38 g ae/ha
  Mean Visual Injury (%)-21 Days After Application MOOVA: 100%
[4]; Table 7, 8.75 g ae/ha
  Mean Visual Injury (%)-21 Days After Application MOOVA: 100%
[4]; Table 7, 17.5 g ae/ha
  Mean Visual Injury (%)-21 Days After Application MOOVA: 100%
[4]; Table 7, 35 g ae/ha
  Mean Visual Injury (%)-21 Days After Application MOOVA: 100%
[4]; Table 7, 70 g ae/ha
  Mean Visual Injury (%)-21 Days After Application MOOVA: 100%
[4]; Table 7, 140 g ae/ha
  Mean Visual Injury (%)-21 Days After Application MOOVA: 100%
[4]; [7]
  GR50 MOOVA: <4.38 g ae/ha
[4]; [8]
  GR90 MOOVA: <4.38 g ae/ha
[5]; Table 7, 2.19 g ae/ha
  Mean Visual Injury (%)-21 Days After Application ECHCG: 0%
[5]; Table 7, 4.38 g ae/ha
  Mean Visual Injury (%)-21 Days After Application ECHCG: 3%
[5]; Table 7, 8.75 g ae/ha
  Mean Visual Injury (%)-21 Days After Application ECHCG: 6%
[5]; Table 7, 17.5 g ae/ha
  Mean Visual Injury (%)-21 Days After Application ECHCG: 57%
[5]; Table 7, 35 g ae/ha
  Mean Visual Injury (%)-21 Days After Application ECHCG: 86%
[5]; Table 7, 70 g ae/ha
  Mean Visual Injury (%)-21 Days After Application ECHCG: 99%
[5]; Table 7, 140 g ae/ha
  Mean Visual Injury (%)-21 Days After Application ECHCG: 100%
[5]; [7]
  GR50 ECHCG: 17.4 g ae/ha
[5]; [8]
  GR90 ECHCG: 53.7 g ae/ha
[6]; Table 7, 8.75 g ae/ha
  Mean Visual Injury (%)-21 Days After Application ORYSA ‘Wells’: 0%
[6]; Table 7, 17.5 g ae/ha
  Mean Visual Injury (%)-21 Days After Application ORYSA ‘Wells’: 0%
[6]; Table 7, 35 g ae/ha
  Mean Visual Injury (%)-21 Days After Application ORYSA ‘Wells’: 0%
[6]; Table 7, 70 g ae/ha
  Mean Visual Injury (%)-21 Days After Application ORYSA ‘Wells’: 0%
[6]; Table 7, 140 g ae/ha
  Mean Visual Injury (%)-21 Days After Application ORYSA ‘Wells’: 5%
[6]; [7]
  GR50 ORYSA ‘Wells’: >140 g ae/ha
[6]; [8]
  GR90 ORYSA ‘Wells’: >140 g ae/ha
